Measurements published in US20250376498A1, “FUSION PROTEINS COMPRISING AN IMPROVED GLP-1 RECEPTOR AGONIST AND USES THEREOF” (Guangzhou Innogen Pharmaceutical Group Co., Ltd., priority 2022, published 2025).

B1: YN-011: GLP-1 fusion protein of SEQ ID NO: 7: GLP-1 (A8G, G22E, R36G), linker peptide and IgG2/Fc domain (C222S, A330S, P331S) (protein)
chain: HGEGTFTSDVSSYLEEQAAKEFIAWLVKGGGSSGAPPPSGGGGSERKSCVECPPCPAPPVAGPSVFLFPPKPKDTLMISRTPEVTCVVVDVSHEDPEVQFNWYVDGVEVHNAKTKPREEQFNSTFRVVSVLTVVHQDWLNGKEYKCKVSNKGLPSSIEKTISKTKGQPREPQVYTLPPSREEMTKNQVSLTCLVKGFYPSDIAVEWESNGQPENNYKTTPPMLDSDGSFFLYSKLTVDKSRWQQGNVFSCSVMHEALHNHYTQKSLSLSPG

Experiments:
HMC3 microglial cells [1] = test: Inflammatory factor expression in HMC3 microglial cells induced by Aβ1-42 oligomers (western blot); format: cell-based, human; settings: for expression of TNF-α (protein) / expression of IL-6 (protein): 10 μM Aβ1-42 oligomers, 48 hours, YN-011 100 nM and 500 nM, combination 100 μM GABA and 100 nM YN-011; for expression of TNF-α (protein): GABA 10 µM and 100 μM; for expression of IL-6 (protein): GABA 100 μM; for inflammatory cytokine expression: Aβ1-42 oligomers (figure legends)
Description: Seed HMC3 human microglial cells into a 12-well plate. After overnight incubation at 37° C. with 5% CO2, treat the cells in each well with 10 μM Aβ1-42 oligomers alone or co-treated with 1, 10, or 100 μM GABA for 48 hours. Each drug treatment is performed in three replicate wells. After 48 hours of treatment, wash the cells with PBS and lyse the cells in RIPA buffer supplemented with protease inhibitor and phosphatase inhibitor on ice for 15 minutes. Centrifuge the cell lysate at 14,000 rpm for 30 minutes. Collect the supernatant, mix with 5× loading buffer supplemented with β-mercaptoethanol, and boil at 100° C. for 10 minutes. Separate denatured proteins by SDS-PAGE. Briefly, load 10 μg of protein onto precast mini polyacrylamide gels (SurePAGE, GenScript #M00657) and run at 120 V voltage. Subsequently, transfer the gel onto a PVDF membrane (0.22 μm pore size) at 200 mA for 90 minutes. After […], incubate the membrane at room temperature with primary antibodies diluted in 5% milk solution (TNF-α, Proteintech #60291-Ig; IL-6, Proteintech #21865-1-AP; HSP90, Proteintech #13171-1-AP) overnight at 4° C. After washing, incubate the membrane with corresponding secondary antibodies (Jackson Lab, 1:10000) at room temperature for 1 hour. After washing, visualize the antibody signals on the membrane using an ECL kit (Millipore #WBKLS0500) following the manufacturer's instructions. Calculate the relative protein levels normalized to the endogenous protein HSP90 using ImageJ.
Please refer to section 8.20 for the experimental procedure, but the drug treatment in this experiment is different from that in section 8.20. In this experiment, the drug treatment is as follows: treat the cells in each well with 10 μM Aβ1-42 oligomers alone or co-treated with 10, 100, or 500 nM YN-011 for 48 hours. Each drug treatment is performed in three replicate wells.
Please refer to section 8.20 for the experimental procedure, but the drug treatment in this experiment is different from that in section 8.20. In this experiment, the drug treatment is as follows: treat the cells in each well with 10 μM Aβ1-42 oligomers alone or co-treated with 100 μM GABA and/or 100 nM YN-011 for 48 hours. Each drug treatment is performed in three replicate wells.

HMC3 microglial cells [2] = test: Inflammatory factor mRNA in HMC3 microglial cells induced by Aβ1-42 oligomers (qPCR); format: cell-based, human; settings: for mRNA expression of IL-6 / mRNA expression of TNF-α: 10 μM Aβ1-42 oligomers, 48 hours, YN-011 100 nM and 500 nM; for mRNA expression of IL-6: GABA 10 μM and 100 μM (so in the source); for mRNA expression of TNF-α: GABA 100 μM, combination 100 μM GABA and 100 nM YN-011; for inflammatory cytokine mRNA expression: Aβ1-42 oligomers (figure legends)
Description: Under sterile conditions, dissolve the synthesized Aβ1-42 peptide (AnaSpec #AS-20276) in hexafluoroisopropanol (Mecklin #H811026) to obtain a 1 mM solution. Divide the solution into 1.5 ml sterile centrifuge tubes and evaporate the hexafluoroisopropanol in a vacuum evaporator. The dried peptide forms a film in the tubes and is stored at −20° C. for later use. Freshly prepare Aβ1-42 oligomers from the dried peptide film as follows: dissolve the dried peptide film in anhydrous DMSO to obtain a 5 mM solution, then dilute with cold cell culture basal medium to obtain a 100 µM stock solution. After incubating at 4° C. for 24 hours, use the stock solution for cell treatment.
Seed HMC3 human microglial cells into a 24-well plate. After overnight incubation at 37° C. with 5% CO2, treat the cells in each well with 10 μM Aβ1-42 oligomers alone or co-treated with 1, 10, or 100 μM GABA for 48 hours. Each drug treatment is performed in three replicate wells. After 48 hours of treatment, isolate total RNA from the cells in each well using 1 ml of Trizol (Invitrogen #15596026) following the manufacturer's instructions. Dissolve the RNA pellet in 20 μl of DEPC-treated water. Measure the RNA concentration and purity using a NanoDrop 2000. Convert RNA into cDNA using a reverse transcription kit (Yeasen #11141ES60). Prepare the PCR reaction as follows: 5 μl of PCR mix (Yeasen #10108ES03), 0.2 μl of forward primer, 0.2 μl of reverse primer, 1 μl of cDNA, and 3.6 μl of water. Perform qPCR on an Applied Biosystems 7500 real-time PCR system using the following thermal program: initial denaturation at 95° C. for 3 minutes, followed by 40 cycles of denaturation at 95° C. for 30 seconds, annealing at 60° C. for 30 seconds, and extension at 72° C. for 1 minute. Compare the relative mRNA expression of TNF-α and IL-6 between treated and untreated cells using the ΔΔCt method, normalized to the expression of the housekeeping gene RPLP0.
Please refer to section 8.17 for the experimental procedure, but the drug treatment in this experiment is different from that in section 8.17. In this experiment, the drug treatment is as follows: treat the cells in each well with 10 μM Aβ1-42 oligomers alone or co-treated with 10, 100, or 500 nM YN-011 for 48 hours. Each drug treatment is performed in three replicate wells.
Please refer to section 8.17 for the experimental procedure, but the drug treatment in this experiment is different from that in section 8.17. In this experiment, the drug treatment is as follows: treat the cells in each well with 10 µM Aβ1-42 oligomers alone or co-treated with 100 μM GABA and/or 100 nM YN-011 for 48 hours. Each drug treatment is performed in three replicate wells.

Row | Molecule | expression of TNF-α (protein) (HMC3 microglial cells [1]) | expression of IL-6 (protein) (HMC3 microglial cells [1]) | inflammatory cytokine expression (HMC3 microglial cells [1]) | mRNA expression of IL-6 (HMC3 microglial cells [2]) | mRNA expression of TNF-α (HMC3 microglial cells [2]) | inflammatory cytokine mRNA expression (HMC3 microglial cells [2])
1 | NCCCC(=O)O [GABA, γ-aminobutyric acid] | significantly reduce | significantly reduces | reduction of inflammatory cytokine expression | significantly reduce | significantly reduces | reduction of inflammatory cytokine mRNA expression
2 | B1 | significantly reduce | significantly reduce | reduction of inflammatory cytokine expression | significantly reduce | significantly reduce | reduction of inflammatory cytokine mRNA expression
